The text below walks through data of patent US20160220557A1, “USE OF ACETYL-COA CARBOXYLASE INHIBITORS FOR TREATING ACNE VULGARIS” (PFIZER INC., priority 2013, published 2016).

The target in one assay is hACC1 (Homo sapiens, UniProt Q13085). Nature of the assay: Radiometric ACC1 inhibition assay. Format: biochemical.
Assay [1] concerns the target T1, recombinant human ACC1 (rhACC1) (Homo sapiens, UniProt Q13085, DEL44-44).
T1 construct: His6 (N); made in house; host or cells: SF9 insect cells (baculovirus)
Briefly: Transcreener ADP detection FP assay, recombinant human ACC1 inhibition. The format is biochemical. Conditions: recombinant human ACC1, 50 μM ATP; read-out: Transcreener Assay hACC1 IC50.

Assay [2] concerns the target T2, recombinant human ACC2 (rhACC2) (Homo sapiens, UniProt O00763, V2141I).
T2 construct: made in house; host or cells: CHO cells, tetracycline-induced (pcDNA5 FRT TO-TOPO)
Nature of the assay: Transcreener ADP detection FP assay, recombinant human ACC2 inhibition. The format is biochemical. Conditions: recombinant human ACC2, 50 μM ATP; read-out: Transcreener Assay hACC2 IC50.

The subject of assay [3] is SZ95 human sebocyte cells. Briefly: Inhibition of de novo lipogenesis (14C-acetate incorporation) in cultured human sebocytes. Format: cell-based. As to conditions: SZ95 sebocytes, 14C-acetate incorporation into lipids relative to vehicle, read-out: C9302E Sebocyte IC50. On the procedure:
SZ95 sebocytes were grown in Human Sebocyte Growth Medium (HSGM) (Sebomed® medium (Biochrom: F8205) supplemented with 10% heat-inactivated fetal bovine serum, 1% penicillin/streptomycin, 1 mM calcium chloride and 5 ng/mL recombinant human epidermal growth factor (Life Tech: PHG0311)). At 90% confluence, cells were washed three times with PBS and then detached with 0.05% Trypsin-EDTA. Cells were centrifuged and resuspended in HSGM containing 10% charcoal-stripped serum (Life Tech: 12676-029). Cells were then plated in 24-well plates at a density of 0.25×10^6 cells/well and were incubated overnight to enable cell adherence to the culture plate.
Cells were treated with a dose response of compound, and each dose was assayed in triplicate. Briefly, compounds were dissolved in DMSO stocks and diluted 1:1000 into charcoal-stripped media. 0.1% DMSO without compound was used as the vehicle control. After a 1 hour preincubation with compound or vehicle, 0.25 μCi ^14C-acetic acid (American Radiolabeled Chemicals: ARC0158B) was added to each well. Plates were then incubated for an additional two hours. At the end of the incubation period, cells were removed from incubator, placed on ice, and then washed twice with ice-cold PBS to remove free ^14C-acetic acid. Plates were sealed and stored at −20° C. until analysis.
Plates were shaken for 1 hour at room temperature to induce lysis. Lysates were transferred to individual 1.5 mL polypropylene tubes, and wells were washed with 175 μl of PBS, which was added to lysates. 450 μl of a 1:1 (v/v) chloroform:methanol solution was then added to each tube, and then all tubes were vortexed for 10 seconds and centrifuged at 20,000×g for 5 minutes at room temperature to separate aqueous from organic phase. A 25 μl aliquot was removed from the bottom organic layer of each sample and added to 6 mL OptiPhase supermix (PerkinElmer: 1200-439) scintillation fluid. Counts of ^14C incorporated into lipids were assessed by scintillation counting. DNL (counts of ^14C incorporated into lipids) was expressed for compound treated cells relative to DNL in the vehicle control treated cells for determination of EC50 values. For a subset of the compounds tested, a second aliquot (3×35 μl) of the organic layer of each sample was removed and applied to a TLC lane (Analtech Silica Gel G Plates). Radiolabeled lipids were resolved using a 2-solvent system. Solvent 1 contained a 100:100:100:40:36 mixture of ethyl acetate:isopropyl alcohol:CHCl3:MeOH:0.25% KCl and solvent 2 a 70:27:3 hexane:diethyl ether:acetic acid mix. The TLC plate was dried under nitrogen for 30 minutes and [^14C]-calibrators added to a vacant lane. Bands were visualized and quantitated using a Molecular Dynamics' Storm 860 Phosphorimager system following 18-36 hours exposure to a Phosphorimager screen.

The target of another assay is hACC2 (Homo sapiens, UniProt O00763). Briefly: Radiometric ACC2 inhibition assay. Format: biochemical.
Chain of hACC2 (O00763 whole entry): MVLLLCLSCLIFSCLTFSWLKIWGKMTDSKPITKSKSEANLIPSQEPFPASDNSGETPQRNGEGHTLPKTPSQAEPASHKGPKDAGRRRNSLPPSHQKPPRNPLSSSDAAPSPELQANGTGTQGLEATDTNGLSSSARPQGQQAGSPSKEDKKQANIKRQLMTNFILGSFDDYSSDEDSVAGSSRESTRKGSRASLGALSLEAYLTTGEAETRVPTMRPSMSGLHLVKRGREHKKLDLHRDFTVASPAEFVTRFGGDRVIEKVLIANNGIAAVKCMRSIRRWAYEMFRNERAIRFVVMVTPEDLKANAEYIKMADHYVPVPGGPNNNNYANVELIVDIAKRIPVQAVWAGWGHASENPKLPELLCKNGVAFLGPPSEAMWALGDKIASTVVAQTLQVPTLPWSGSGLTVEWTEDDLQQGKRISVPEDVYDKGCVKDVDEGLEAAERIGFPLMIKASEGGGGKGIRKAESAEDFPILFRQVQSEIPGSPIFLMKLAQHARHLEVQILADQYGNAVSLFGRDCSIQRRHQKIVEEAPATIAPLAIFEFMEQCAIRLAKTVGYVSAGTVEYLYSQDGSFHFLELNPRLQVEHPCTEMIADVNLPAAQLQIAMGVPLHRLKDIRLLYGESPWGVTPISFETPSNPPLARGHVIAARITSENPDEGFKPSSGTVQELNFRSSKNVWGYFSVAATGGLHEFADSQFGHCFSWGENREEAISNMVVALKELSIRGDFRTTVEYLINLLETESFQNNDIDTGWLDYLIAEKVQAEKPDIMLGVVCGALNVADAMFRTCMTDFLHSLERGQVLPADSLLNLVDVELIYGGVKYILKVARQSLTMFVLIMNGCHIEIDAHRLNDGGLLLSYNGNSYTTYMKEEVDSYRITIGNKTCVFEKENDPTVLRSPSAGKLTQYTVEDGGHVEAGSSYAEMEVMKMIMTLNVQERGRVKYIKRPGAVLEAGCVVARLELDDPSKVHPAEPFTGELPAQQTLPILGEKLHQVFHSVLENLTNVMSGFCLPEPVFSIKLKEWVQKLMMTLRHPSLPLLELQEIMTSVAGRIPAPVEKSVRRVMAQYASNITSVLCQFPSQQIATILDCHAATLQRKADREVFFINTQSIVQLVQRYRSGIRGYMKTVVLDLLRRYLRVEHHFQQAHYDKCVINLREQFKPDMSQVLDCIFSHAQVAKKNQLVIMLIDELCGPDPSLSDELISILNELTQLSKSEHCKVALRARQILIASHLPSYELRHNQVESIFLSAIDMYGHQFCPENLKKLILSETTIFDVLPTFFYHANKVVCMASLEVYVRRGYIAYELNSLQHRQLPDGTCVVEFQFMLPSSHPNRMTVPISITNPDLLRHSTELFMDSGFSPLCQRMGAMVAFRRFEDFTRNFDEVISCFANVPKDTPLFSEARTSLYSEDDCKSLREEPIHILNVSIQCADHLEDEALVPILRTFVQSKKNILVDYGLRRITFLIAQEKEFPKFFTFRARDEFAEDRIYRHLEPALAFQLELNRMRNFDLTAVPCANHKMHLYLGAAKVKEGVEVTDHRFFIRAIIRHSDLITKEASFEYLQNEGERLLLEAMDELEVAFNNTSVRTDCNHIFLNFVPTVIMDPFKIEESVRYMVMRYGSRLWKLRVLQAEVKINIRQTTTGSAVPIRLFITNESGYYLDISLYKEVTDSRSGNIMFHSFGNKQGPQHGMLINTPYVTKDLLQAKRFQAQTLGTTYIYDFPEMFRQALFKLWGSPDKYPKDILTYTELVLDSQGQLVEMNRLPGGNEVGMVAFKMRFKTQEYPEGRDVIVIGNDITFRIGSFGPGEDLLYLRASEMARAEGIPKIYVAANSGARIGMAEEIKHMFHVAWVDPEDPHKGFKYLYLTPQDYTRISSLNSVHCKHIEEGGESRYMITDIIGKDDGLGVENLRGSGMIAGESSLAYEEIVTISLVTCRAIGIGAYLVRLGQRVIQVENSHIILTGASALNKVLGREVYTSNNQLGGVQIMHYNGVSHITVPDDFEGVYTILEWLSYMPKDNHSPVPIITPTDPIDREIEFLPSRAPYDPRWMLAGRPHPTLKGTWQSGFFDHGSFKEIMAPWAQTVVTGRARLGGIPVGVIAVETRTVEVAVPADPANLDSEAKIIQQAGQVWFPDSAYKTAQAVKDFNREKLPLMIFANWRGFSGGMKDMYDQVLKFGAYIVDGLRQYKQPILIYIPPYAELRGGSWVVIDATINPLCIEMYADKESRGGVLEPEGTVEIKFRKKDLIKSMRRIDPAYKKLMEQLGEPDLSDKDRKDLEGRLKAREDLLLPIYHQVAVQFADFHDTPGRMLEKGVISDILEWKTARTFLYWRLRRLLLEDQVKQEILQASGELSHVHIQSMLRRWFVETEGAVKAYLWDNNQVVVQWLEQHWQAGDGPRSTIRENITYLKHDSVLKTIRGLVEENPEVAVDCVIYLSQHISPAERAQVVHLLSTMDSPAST

pIC50: −log10 of the molar value. Read-outs that look alike come from different tables or passages of the source. Some results are limits rather than exact numbers.

T2 sequence (O00763 whole entry V2141I): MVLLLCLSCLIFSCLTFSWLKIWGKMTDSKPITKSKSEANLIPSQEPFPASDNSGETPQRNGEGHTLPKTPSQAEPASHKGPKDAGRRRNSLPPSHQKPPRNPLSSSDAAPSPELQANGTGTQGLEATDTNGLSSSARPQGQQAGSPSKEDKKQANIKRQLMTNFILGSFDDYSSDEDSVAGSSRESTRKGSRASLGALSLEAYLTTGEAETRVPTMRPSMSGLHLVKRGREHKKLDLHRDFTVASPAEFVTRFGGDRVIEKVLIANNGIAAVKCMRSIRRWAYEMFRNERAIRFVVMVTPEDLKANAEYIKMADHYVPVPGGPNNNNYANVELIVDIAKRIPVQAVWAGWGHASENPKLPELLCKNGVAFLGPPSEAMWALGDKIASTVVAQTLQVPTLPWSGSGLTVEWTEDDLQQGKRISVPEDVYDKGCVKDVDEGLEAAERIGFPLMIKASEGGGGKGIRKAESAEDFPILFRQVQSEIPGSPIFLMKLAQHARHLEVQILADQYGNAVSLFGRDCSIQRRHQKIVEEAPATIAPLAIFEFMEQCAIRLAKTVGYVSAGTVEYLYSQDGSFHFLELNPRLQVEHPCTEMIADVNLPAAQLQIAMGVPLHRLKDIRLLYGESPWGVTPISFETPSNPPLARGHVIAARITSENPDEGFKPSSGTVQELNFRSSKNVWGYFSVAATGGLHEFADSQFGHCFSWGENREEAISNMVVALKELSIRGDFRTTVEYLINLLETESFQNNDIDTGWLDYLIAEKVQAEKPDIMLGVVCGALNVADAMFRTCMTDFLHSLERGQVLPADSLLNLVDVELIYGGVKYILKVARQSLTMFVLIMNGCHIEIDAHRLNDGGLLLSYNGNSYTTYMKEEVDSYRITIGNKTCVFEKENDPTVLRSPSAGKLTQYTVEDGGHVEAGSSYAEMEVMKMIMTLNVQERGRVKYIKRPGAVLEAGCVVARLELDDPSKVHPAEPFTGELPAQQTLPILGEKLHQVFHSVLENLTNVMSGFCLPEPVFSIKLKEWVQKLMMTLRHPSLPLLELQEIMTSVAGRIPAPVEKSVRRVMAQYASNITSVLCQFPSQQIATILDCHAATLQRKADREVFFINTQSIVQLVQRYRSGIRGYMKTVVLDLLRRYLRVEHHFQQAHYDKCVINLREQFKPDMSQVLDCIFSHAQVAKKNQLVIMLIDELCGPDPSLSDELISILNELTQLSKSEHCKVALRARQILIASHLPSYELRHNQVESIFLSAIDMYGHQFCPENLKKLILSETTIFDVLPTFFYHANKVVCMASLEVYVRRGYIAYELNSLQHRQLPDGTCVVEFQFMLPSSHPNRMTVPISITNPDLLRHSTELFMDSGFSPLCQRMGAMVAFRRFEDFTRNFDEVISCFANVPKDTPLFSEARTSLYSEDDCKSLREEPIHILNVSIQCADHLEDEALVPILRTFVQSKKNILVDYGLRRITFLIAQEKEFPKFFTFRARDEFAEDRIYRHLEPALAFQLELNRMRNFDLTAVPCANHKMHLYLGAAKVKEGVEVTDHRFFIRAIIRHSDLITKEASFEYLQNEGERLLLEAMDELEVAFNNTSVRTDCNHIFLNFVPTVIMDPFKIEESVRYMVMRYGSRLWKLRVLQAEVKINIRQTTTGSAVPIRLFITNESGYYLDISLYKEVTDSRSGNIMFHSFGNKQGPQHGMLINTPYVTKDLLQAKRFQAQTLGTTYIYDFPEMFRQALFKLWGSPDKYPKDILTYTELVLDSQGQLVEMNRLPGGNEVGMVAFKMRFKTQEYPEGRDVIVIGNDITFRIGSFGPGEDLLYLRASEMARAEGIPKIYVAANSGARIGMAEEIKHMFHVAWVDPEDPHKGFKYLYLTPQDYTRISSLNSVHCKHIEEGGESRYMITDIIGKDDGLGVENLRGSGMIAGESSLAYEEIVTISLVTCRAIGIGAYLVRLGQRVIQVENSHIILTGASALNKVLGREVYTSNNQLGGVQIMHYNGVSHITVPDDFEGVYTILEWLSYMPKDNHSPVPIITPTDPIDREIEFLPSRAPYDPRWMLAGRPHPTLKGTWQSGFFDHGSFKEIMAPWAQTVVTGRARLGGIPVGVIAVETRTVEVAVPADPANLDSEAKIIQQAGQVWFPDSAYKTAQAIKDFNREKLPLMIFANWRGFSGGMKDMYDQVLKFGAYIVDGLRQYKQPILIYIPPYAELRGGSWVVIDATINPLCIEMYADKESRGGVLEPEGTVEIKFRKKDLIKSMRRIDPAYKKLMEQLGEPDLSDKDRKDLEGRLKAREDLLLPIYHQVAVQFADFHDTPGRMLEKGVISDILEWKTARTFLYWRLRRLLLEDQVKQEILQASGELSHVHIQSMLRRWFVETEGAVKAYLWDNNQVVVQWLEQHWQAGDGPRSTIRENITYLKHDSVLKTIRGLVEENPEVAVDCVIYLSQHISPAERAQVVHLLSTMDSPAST

By pIC50 is commonly meant the negative decadic logarithm of the IC50, by convention in mol/L. Turning to `COc1ccc2ccc(C(=O)N3CCC4(CC3)CC(=O)c3c(cnn3C(C)C)C4)cc2c1` [Example 2, 1-isopropyl-1′-(7-methoxy-2-naphthoyl)-4,6-dihydrospiro[indazole-5,4′-piperidin]-7(1H)-one], the pIC50 is 8.52 on hACC1; 8.40 in assay [1]; 8.70 in assay [2]; 7.55 in assay [3] (Homo sapiens); 8.40 at hACC2.
Regarding `CC(C)n1ncc2c1C(=O)CC1(CCN(C(=O)c3ccc4ccc(NC(C)(C)C)nc4c3)CC1)C2` [Example 4, 1′-(2-(tert-butylamino)quinoline-7-carbonyl)-1-isopropyl-4,6-dihydrospiro[indazole-5,4′-piperidin]-7(1H)-one], the pIC50 was 8.22 against hACC1; 7.77 in assay [1]; 7.92 in assay [2]; 7.82 in assay [3] (Homo sapiens); 8.30 against hACC2.
For `CC(C)n1ncc2c1C(=O)CC1(CCN(C(=O)c3ccc4[nH]ncc4c3)CC1)C2` [Example 5, 1′-(1H-indazole-5-carbonyl)-1-isopropyl-4,6-dihydrospiro[indazole-5,4′-piperidin]-7(1H)-one] the same measures were 8.30, 7.21, 7.52, 6.70 and 8.10.
As for `CC(C)n1ncc2c1C(=O)CC1(CCN(C(=O)c3ccc4[nH]nc(C#N)c4c3)CC1)C2` [Example 6, 5-(1-isopropyl-7-oxo-1,4,6,7-tetrahydrospiro[indazole-5,4′-piperidin]-1′-ylcarbonyl)-1H-indazole-3-carbonitrile], the pIC50 against hACC1 is 8.30; in assay [3], 6.99; against hACC2, 8.40.
Consider `COc1nccc2ccc(C(=O)N3CCC4(CC3)Cc3cn(C(C)(C)C)nc3C(=O)N4)cc12` [Example 7, 2′-(tert-butyl)-1-(1-methoxyisoquinoline-7-carbonyl)-4′,6′-dihydrospiro[piperidine-4,5′-pyrazolo[3,4-c]pyridin]-7′(2′H)-one], for which, in assay [3] (Homo sapiens), the pIC50 is 7.03.
`CO[C@H]1CCCC[C@@H](c2ccccc2)OC(=O)[C@@H](C)[C@@]2(O)O[C@H]([C@@H](C)[C@H](O)[C@H]2OC)[C@@H](C)/C=C/[C@H]1OC` [Example 9, reference compound]: the pIC50 against hACC1 is 6.85; in assay [1] it was 7.70; in assay [2], 5.92; in assay [3] (Homo sapiens), 8.40; against hACC2 it was 7.80.
Take `COc1cc(C(=O)N2CCC3(CC2)CC(=O)c2cc(-c4nnn[nH]4)ccc2O3)cc2c1ccn2C1CC1` [Example 10, 1′-(1-cyclopropyl-4-methoxy-1H-indole-6-carbonyl)-6-(1H-tetrazol-5-yl)spiro[chromane-2,4′-piperidin]-4-one]: the negative logarithm of the IC50 (pIC50) was 7.80 in assay [1], 8.40 in assay [2] and 5.77 in assay [3] (Homo sapiens).
As to `CC(C)n1ncc2c1C(=O)CC1(CCN(C(=O)c3ccc4[nH]nc(C#N)c4c3)CC1)C2` [Example 11, 5-(1-isopropyl-7-oxo-1,4,6,7-tetrahydrospiro[indazole-5,4′-piperidine]-1′-carbonyl)-1H-indazole-3-carbonitrile], the pIC50 was 8.40 against hACC1, 6.66 in assay [3] and 8.15 against hACC2.
For `CC(=O)N[C@@H](C)C#Cc1ccc(Oc2ccc(OC(C)C)cc2)cc1` [Example 12, (S)—N-(4-(4-(4-isopropoxyphenoxy)phenyl)but-3-yn-2-yl)acetamide], the pIC50 is 7.59 against hACC1; 6.85 in assay [1]; 7.54 in assay [2]; 6.92 in assay [3] (Homo sapiens); 8.70 against hACC2.
Regarding `CCCOc1ccc(Oc2ccc(-c3ccc(C(C)NC(C)=O)cc3)cn2)cc1` (stereo not drawn) [Example 13, N-(1-(4-(6-(4-propoxyphenoxy)pyridin-3-yl)phenyl)ethyl)acetamide, reference compound], the pIC50 in assay [1] is under 5.53; in assay [2], 6.74; in assay [3] (Homo sapiens), 5.48.
On to `CCOc1cc(C(=O)N2CCC3(CC2)CC(=O)c2cc(-c4cncc(C(N)=O)c4)ccc2O3)cc(OCC)c1-c1cccc(C(=O)O)c1` [Example 14, 4′-(6-(5-carbamoylpyridin-3-yl)-4-oxospiro[chromane-2,4′-piperidine]-1′-carbonyl)-2′,6′-diethoxy-[1,1′-biphenyl]-3-carboxylic acid], for which the pIC50 was 7.64 against hACC1; 7.92 in assay [1]; 8.10 in assay [2]; 5.05 in assay [3] (Homo sapiens); 8.30 at hACC2.
In the case of `CC(=O)NCC(C)c1ccc2nc(Oc3ccc(OCC4CC4)nc3)sc2c1` (stereo not drawn) [Example 15, N-(2-(2-((6-(cyclopropylmethoxy)pyridin-3-yl)oxy)benzo[d]thiazol-6-yl)propyl)acetamide], the pIC50 in assay [1] was 5.66; in assay [2], 5.96; in assay [3] (Homo sapiens), 5.37.
For `CC(C)(O)[C@@H](NC(=O)[C@H]1CC[C@H](NS(=O)(=O)c2ccc(C(F)(F)F)cc2)CC1)c1ccccc1` [Example 16, (1R,4S)—N—((S)-2-hydroxy-2-methyl-1-phenylpropyl)-4-((4-(trifluoromethyl)phenyl)sulfonamido)cyclohexane-1-carboxamide] the same measures were 7.13, 7.16 and 5.56.
On to `CCCCCCCCCCCCCCOc1ccc(C(=O)OCC(F)(F)F)o1` [Example 17, 2,2,2-trifluoroethyl 5-(tetradecyloxy)furan-2-carboxylate], for which, on hACC1, the pIC50 is under 5.00.
The same measure, in the same setting: in the case of `CCCCCCCCCCCCCCOc1ccc(C(=O)OC(C)C)o1` [Example 18, isopropyl 5-(tetradecyloxy)furan-2-carboxylate] it was under 5.00; in that of `CCCCCCCCCCCCCCOc1ccc(C(=O)OCc2oc(=O)oc2C)o1` [Example 19, (5-methyl-2-oxo-1,3-dioxol-4-yl)methyl 5-(tetradecyloxy)furan-2-carboxylate], under 5.00.
In the case of `CCCCC1=NC2(CCN(C(=O)c3c(NC(=O)NCC)sc4ccccc34)CC2)C(=O)N1` [Example 20, 1-(3-(2-butyl-4-oxo-1,3,8-triazaspiro[4.5]dec-1-ene-8-carbonyl)benzo[b]thiophen-2-yl)-3-ethyl urea], the pIC50 in assay [1] was 4.96; in assay [2], 5.66.
As for `CC(=O)N[C@@H](C)c1cc(-c2cnc(Oc3ccc(OCC4CC4)cc3)s2)no1` [Example 21, (S)—N-(1-(3-(2-(4-(cyclopropylmethoxy)phenoxy)thiazol-5-yl)isoxazol-5-yl)ethyl)acetamide], the pIC50 against hACC1 is 7.01; in assay [1] it was 7.36; in assay [2], 8.15; at hACC2, 8.70.
Take `CC(=O)NC(C)c1ccc(-c2cnc(Oc3ccc(OCC4CC4)cc3)s2)cc1` (stereo not drawn) [Example 22, N-(1-(4-(2-(4-(cyclopropylmethoxy)phenoxy)thiazol-5-yl)phenyl)ethyl)acetamide]: the pIC50 was 5.39 in assay [1] and 6.02 in assay [2].
For `CC(=O)N[C@@H](C)CCc1ccc(Oc2ccc(OC(C)C)cc2)cc1` [Example 23, (S)—N-(4-(4-(4-isopropoxyphenoxy)phenyl)butan-2-yl)acetamide], the pIC50 at hACC1 is 6.16; in assay [1], 6.17; in assay [2], 6.96; against hACC2, 7.80.
`O=C(O)CCc1ccc(-c2ccc(S(=O)(=O)N[C@H]3CC[C@H](C(=O)N4CCOC[C@@H]4c4ccccc4)CC3)cc2)cc1` [Example 24, 3-(4′-(N-((1S,4r)-4-((S)-3-phenylmorpholine-4-carbonyl)cyclohexyl)sulfamoyl)-[1,1′-biphenyl]-4-yl)propanoic acid]: the figures for the pIC50 in assay [1] and in assay [2] were 7.39 and 7.55, respectively.
